Measured values from US10967035B1, “Aquaculture feed additive” (HP Ingredients Corp., priority 2020, dated 2021).

What was measured:
[1] = tested on: Piscirickettsia salmonis strain type LF-89; format: cell-based
CD8+ = experiment: RT-qPCR of CD8+ expression in anterior kidney of fish fed supplemented diets; format: in vivo, rainbow trout; settings: diet 15 days
Procedure: (§1) We compared several aquaculture diets suitable for use in commercial aquaculture. The standard diet was […] commercially available from Salmones […]., Los Angeles, Chile. […] Each diet was administered to each of three (3) cages for 15 days. […] We extracted total RNA from each sample, and then quantified the expression of IL-12 and CD8^+ using real-time quantitative PCR, according to the standardized protocols of the Aquatic Organisms Biotechnology Lab of the Universidad Austral de Chile.

IL-12 = experiment: RT-qPCR of IL-12 expression in anterior kidney of fish fed supplemented diets; format: in vivo, rainbow trout; settings: diet 15 days; NC 0.5 kg/ton, AP 1 kg/ton of feed
Procedure: as §1

SMILES	mean inhibition in bacterial growth ([1]; 64, 32 and 16 μg/mL) [fold]	CD8+ expression in anterior kidney compared to control group (CD8+; NC 0.5 kg/ton, AP 1 kg/ton of feed)	stimulation of the immune activity markers compared to control (CD8+; in vivo pilot test)	inhibitory effect on bacterial growth ([1]; at the analyzed concentrations (0.98 to 500))	IL-12 expression in anterior kidney compared to control group (IL-12)
CS(=O)(=O)c1ccc([C@@H](O)[C@@H](CF)NC(=O)C(Cl)Cl)cc1 [florfenicol]	5				
C=C1CC[C@@H]2[C@](C)(CO)[C@H](O)CC[C@@]2(C)[C@@H]1C/C=C1/C(=O)OC[C@H]1O [AP, andrographolide]		increase the expression of CD8+	2.0	no significant differences in the inhibitory effect	depress the expression of IL-12
